Laboratory results as given in US5250679A, “Nonpeptidyl platelet aggregation inhibitors having specificity for the GPIIb III receptor” (Genentech, Inc., priority 1992, dated 1993).
Structures can show the parent of a compound that is named as a salt. Where two headings read alike, the source gives them in different places.

How the values were obtained:
GP IIb IIIa [1] = target: T1, GP IIb IIIa (Homo sapiens, UniProt P05106+P08514); test: Fibrinogen-GP IIb IIIa Receptor ELISA Binding Assay (Fg/IIbIIIa)
T1 construct: from tissue; host or cells: outdated human platelets
T1 sequence (P08514 32-887 limits assumed): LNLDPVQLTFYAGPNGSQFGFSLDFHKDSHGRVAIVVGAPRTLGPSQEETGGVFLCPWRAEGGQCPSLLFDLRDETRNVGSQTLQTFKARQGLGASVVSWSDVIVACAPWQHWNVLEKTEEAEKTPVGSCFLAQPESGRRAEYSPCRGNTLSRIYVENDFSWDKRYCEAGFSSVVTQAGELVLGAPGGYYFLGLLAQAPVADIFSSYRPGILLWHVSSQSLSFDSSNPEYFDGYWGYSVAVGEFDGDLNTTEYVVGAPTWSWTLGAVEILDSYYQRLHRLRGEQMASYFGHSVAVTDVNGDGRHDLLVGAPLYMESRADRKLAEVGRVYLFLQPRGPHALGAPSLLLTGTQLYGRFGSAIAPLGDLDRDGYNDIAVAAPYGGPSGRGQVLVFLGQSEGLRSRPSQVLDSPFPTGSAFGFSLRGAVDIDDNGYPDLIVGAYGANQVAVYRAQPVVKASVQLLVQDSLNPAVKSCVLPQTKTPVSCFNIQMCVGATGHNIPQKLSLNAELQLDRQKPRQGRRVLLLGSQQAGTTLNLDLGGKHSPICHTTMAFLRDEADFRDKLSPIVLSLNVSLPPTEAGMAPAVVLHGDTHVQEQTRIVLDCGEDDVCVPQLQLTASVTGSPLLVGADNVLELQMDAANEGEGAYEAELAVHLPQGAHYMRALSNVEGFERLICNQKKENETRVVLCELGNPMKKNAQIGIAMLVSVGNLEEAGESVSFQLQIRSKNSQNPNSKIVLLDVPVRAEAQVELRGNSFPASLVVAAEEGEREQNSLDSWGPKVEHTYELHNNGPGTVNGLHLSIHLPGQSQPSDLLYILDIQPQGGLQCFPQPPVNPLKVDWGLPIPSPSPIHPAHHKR
T1 sequence (P08514 891-1039 partner limits assumed): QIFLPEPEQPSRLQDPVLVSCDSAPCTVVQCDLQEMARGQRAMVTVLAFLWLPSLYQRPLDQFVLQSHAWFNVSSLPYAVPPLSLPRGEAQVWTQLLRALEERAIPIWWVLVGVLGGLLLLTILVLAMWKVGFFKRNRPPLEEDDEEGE
T1 sequence (P05106 27-788): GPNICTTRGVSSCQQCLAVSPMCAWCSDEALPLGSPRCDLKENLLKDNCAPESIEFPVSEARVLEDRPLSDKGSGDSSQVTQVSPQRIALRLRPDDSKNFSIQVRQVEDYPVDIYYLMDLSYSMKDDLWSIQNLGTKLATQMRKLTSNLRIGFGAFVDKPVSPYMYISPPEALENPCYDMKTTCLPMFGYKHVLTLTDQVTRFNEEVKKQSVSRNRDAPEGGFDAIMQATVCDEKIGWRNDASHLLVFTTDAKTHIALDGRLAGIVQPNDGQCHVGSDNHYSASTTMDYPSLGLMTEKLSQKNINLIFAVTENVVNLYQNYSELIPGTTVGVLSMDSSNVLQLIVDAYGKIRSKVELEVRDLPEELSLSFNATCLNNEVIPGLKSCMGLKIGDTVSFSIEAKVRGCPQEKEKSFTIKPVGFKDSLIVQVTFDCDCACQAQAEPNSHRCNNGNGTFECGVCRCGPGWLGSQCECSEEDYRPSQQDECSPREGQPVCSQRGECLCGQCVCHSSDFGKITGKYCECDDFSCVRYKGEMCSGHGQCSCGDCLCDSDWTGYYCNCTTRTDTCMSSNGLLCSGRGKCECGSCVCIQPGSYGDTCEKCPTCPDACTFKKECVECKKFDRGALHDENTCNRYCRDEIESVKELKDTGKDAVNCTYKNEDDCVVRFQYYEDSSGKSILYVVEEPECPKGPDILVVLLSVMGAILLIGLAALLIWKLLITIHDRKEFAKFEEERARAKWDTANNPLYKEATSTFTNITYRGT
Procedure, shortened: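 Purified human platelet GP IIb IIIa binding to immobilised purified fibrinogen was run with compound at room temperature for 1 h. IC50 values were determined.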

[2] = target: T2, Human Vitronectin receptor (av b3) (Homo sapiens, UniProt P05106+P06756); test: Human Vitronectin-Vitronectin Receptor (av b3) ELISA Assay (Vn/VnR); assay type: binding; details: Example 30, G # table
T2 construct: is purified from human placenta; from tissue; host or cells: human placenta
T2 sequence (P06756 31-889 limits assumed): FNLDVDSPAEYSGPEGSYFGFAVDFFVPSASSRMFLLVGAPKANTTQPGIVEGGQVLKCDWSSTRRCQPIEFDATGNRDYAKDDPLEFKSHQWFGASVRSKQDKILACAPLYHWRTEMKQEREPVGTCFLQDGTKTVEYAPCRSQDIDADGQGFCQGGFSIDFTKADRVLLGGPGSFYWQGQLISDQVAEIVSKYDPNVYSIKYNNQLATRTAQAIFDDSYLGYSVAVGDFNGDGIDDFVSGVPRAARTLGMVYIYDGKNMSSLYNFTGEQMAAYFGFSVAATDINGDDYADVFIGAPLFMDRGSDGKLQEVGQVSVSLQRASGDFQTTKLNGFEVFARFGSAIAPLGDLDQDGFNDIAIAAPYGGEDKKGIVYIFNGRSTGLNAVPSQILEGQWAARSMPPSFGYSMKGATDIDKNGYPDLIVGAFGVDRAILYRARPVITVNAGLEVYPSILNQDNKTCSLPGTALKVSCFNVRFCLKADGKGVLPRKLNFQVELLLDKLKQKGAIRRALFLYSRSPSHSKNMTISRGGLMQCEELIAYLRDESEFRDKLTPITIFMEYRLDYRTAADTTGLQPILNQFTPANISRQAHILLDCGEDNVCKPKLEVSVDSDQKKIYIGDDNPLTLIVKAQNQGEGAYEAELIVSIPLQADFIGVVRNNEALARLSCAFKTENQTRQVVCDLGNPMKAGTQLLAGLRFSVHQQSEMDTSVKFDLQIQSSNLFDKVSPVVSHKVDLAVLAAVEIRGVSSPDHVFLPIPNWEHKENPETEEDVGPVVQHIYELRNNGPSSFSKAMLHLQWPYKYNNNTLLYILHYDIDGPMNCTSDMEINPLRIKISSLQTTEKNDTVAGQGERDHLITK
T2 sequence (P06756 891-1048 partner limits assumed): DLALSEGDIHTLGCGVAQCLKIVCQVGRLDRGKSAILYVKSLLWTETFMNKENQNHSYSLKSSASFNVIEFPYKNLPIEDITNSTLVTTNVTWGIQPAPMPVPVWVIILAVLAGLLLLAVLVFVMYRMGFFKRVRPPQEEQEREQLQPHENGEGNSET
T2 sequence (P05106 27-788): as the sequence (P05106 27-788) above
Description: Human vitronectin (Vn) is isolated from human plasma and purified by affinity chromatography by the method of Yatohgo et. al., (Cell Structure and Function 13: 281-292 [1988]).
Human vitronection receptor (VnR) is purified from human placenta by the method of Pytela et al., (Methods Enzymol., 144: 475 [1987]). Alternatively the av b3 receptor can be purified from some cell lines (e.g., human embryonic kidney 293 cells) transfected with DNA sequences for both the av and b3 subunits. The subunits are purified by employing octylglucoside extraction followed by Con-A, Heparin-Sepharose, and S-300 Chromatography.
This mouse Mab is specific for the b3 subunit of the vitronectin receptor.
Rabbit Fab 2 anti-mouse Fc fragment horse radish peroxidase conjugate (anti-MuFc HRP) is obtained from PelFreeze (cat. no. 715305-1).
Maxisorp microtiter plates are coated with 2 mg/ml human vitronectin dissolved in PBS (50 ml/well) and stored overnight at 4° C. The plates are washed two times with PBS-0.05% Tween-20 (wash buffer) and blocked by incubating with about 150 ml/well of assay buffer (1%, BSA [RIA grade or better] in 50 mM Tris-HCl, 100 mM NaCl, 1 mM MgCl2, CaCl2, MnCl2 pH 7.4) for 60 minutes. […] The blocked plates are emptied and 25 ml/well of inhibitor or standard solution is added to each well. Twenty-five ml of a 30 mg/ml solution of purified av b3 in assay buffer is pipetted into the coated plate. The final concentration of receptor in the assay well is about 15 mg/ml. The plate is incubated on a shaker for 60 minutes. Meanwhile, for each microtite plate, 6 ml buffer solution containing 1.5 mg/ml of mouse monoclonal antibody specific for b3 is prepared. To this solution is added ml of the secondary antibody, which is anti-mouse-Fc-HRP antibody conjugate. For example, for one plate, prepare 6 ml of a 1.5 mg/ml mouse Mab solution to which is added 1 ml of anti-mouse-Fc-HRP antibody stock, (this represents a 1:6000 dilution of the antibody-HRP conjugate). This mixture is allowed to incubate during the receptor-inhibitor incubation. The assay plates are washed 4 times with PBS-Tween and 50 ml/well of the antibody mixture is then pipetted into the plate for a 60 minute incubation. The plate is washed 4 times and the color reaction is developed with 50 ml/well of 0.67 mg/ml o-phenyldiamine in PBS containing 0.012% H2 O2. Alternatively, 16 mM citric acid, 50 mM Na2 PO4 at pH 5.0 can be used as a substrate buffer. The reaction is stopped with 50 ml/well 1 M H2 SO4. The plates are read at 492-405 nm and the data analyzed by four-parameter fit.

GP IIb IIIa [3] = target: T1, GP IIb IIIa; test: GP IIb IIIa -von Willebrand factor (vWF) ELISA Assay (vWF/IIbIIIa); assay type: binding; details: Example 30, G # table
Description: Microtiter plates are coated with 1.0 mg/ml GP IIb IIIa, prepared by the method of Fitzgerald et al., (Anal. Biochem. 151: 169-177 [1985]) and allowed to incubate overnight in coat buffer. The plates are then washed three times in wash buffer (0.05% Tween 20 in PBS) and 150 ml of assay buffer is added and allowed to incubate for 1-2 hours at room temperature on plate shaker. […] Fifty ml of 4.0 mg/ml vWF (prepared as described by Ledford et al., Thrombosis and Haemostasis, 64(4): 569-575 ]1990]) in assay buffer is then added and allowed to incubate for one hour at room temperature on plate-shaker. The plates are washed three times and the antibody mixture is added (1:5000 of mouse anti-vWF and 1:5000 of rabbit-anti-mouse-Fc-HRP, both commercially available) in assay buffer and incubated for 1 hour at room temperature on plate-shaker. […] The color change of OPD/H2 O2 reagent is read at 492 nm with a 405 nm reference wavelength on the filter photometer.

[4] = system: human platelet rich plasma (PRP); test: In Vitro Human Platelet Aggregation Assay (PA); assay type: cell-based
Description: In addition to the GPIIb IIIa ELISA assay, platelet aggregation assays may be performed in human platelet rich plasma (PRP). […] The blood is centrifuged at 160×g for 10 min at 22° C. and then allowed to stand for 5 min after which the PRP is decanted. Platelet poor plasma (PPP) is isolated from the remaining blood after centrifugation at 2000×g for 25 min. The platelet count of the PRP is adjusted to ca. 300,000 per microliter with PPP.
A 225 mL aliquot of PRP plus 25 mL of either a dilution of the test sample or a control (PBS) is incubated for 5 min in a Chrono-log Whole Blood Aggregometer at 25° C. An aggregating agent (collagen, 1 mg/ml; U46619, 100 ng/ml; or ADP, 8 mM) is added and the platelet aggregation recorded.
Platelet aggregation assays are performed in human platelet rich plasma (PRP). […] The blood is centrifuged at 160×g for 10 minutes at 22° C. and allowed to stand for 5 minutes after which the PRP is decanted. Platelet poor plasma (PPP) is isolated from the remaining blood after centrifugation at 2000×g for 25 minutes. The platelet count of the PRP is diluted to about 300,000 platelets per microliter with PPP.
A 225 ml aliquot of PRP plus 25 ml of either a dilution of the test inhibitor sample or a control (PBS) is incubated for 5 minutes in a Chrono-log Whole Blood Aggregometer at 25° C. An aggregating agent (collagen, 1 mg/ml; U46619, 100 ng/ml; or ADP, 17 mM) is added and the transmission is recorded.

[5] = Example 29, Cmpd # 1-105, read-out: IC50 Fg/IIbI
[6] = Example 30, G # table, read-out: IC50 (μM) Fg/IIbIIIa
[7] = Homo sapiens, Platelet, citrate, read-out: PA IC50 (μM) (citrate)
[8] = Homo sapiens, Platelet, heparin, read-out: PA IC50 (μM) (heparin)
[9] = Examples 29 and 30, Cmpd # tables, read-out: IC50 (μM) Fg/IIbIIIa

IC50 (GP IIb IIIa [3]) [µM] | Compound | IC50 (GP IIb IIIa [1]; [5]) [µM] | IC50 (GP IIb IIIa [1]; [6]) [µM] | IC50 [2] [µM] | IC50 [4, 7] [µM] | IC50 [4, 8] [µM] | IC50 ([4]; heparin, read-out: PA IC50 (μM) (heparin)) [µM] | IC50 (GP IIb IIIa [1]; [9]) [µM]
0.096 | CN1C(=O)CN(CCC(=O)O)C(=O)c2cc(CCCCNC(=N)N)ccc21 [Cmpd 20] | 0.25 | 0.245 | > 10 |  |  |  | 
0.78 | CN1C(=O)CN(CCC(=O)O)C(=O)c2cc(CCCCCN)ccc21 [Cmpd 27, 1-methyl-4-(2-carboxyethyl)-7-(5-amino-1-pentyl)-3,4-dihydro-1H-1,4-benzodiazepine-2,5-dione trifluroacetate] | 1.9 | 1.9 | > 10 |  |  |  | 
0.024 | CN1C(=O)CN(CCC(=O)O)C(=O)c2cc(CCCCCNC(=N)N)ccc21 [Cmpd 28, 1-methyl-4-(2-carboxyethyl)-7-(5-guanidino-1-pentyl)-3,4-dihydro-1H-1,4-benzodiazepine-2,5-dione trifluroacetate] | 0.055 | 0.055 | > 10 |  |  |  | 
 | NCCCC#Cc1ccc2c(c1)C(=O)N(CCC(=O)O)CC(=O)N2Cc1cccc([N+](=O)[O-])c1 [Cmpd 35, 1-(3-nitrobenzyl)-4-(2-carboxyethyl)-7-(5-amino-1-pentynyl)-3,4-dihydro-1H-1,4-benzodiazepine-2,5-dione trifluroacetate] | 0.013 | 0.013 | > 10 | 2.4 | 8 | 9.53 | 
 | CN1C(=O)CN(CCC(=O)O)C(=O)c2cc(C#CCCCCNC(=N)N)ccc21 [Cmpd 42, 1-(methyl)-4-(2-carboxyethyl)-7-(6-guanidino-1-hexynyl)-3,4-dihydro-1H-1,4-benzodiazepine-2,5-dione trifluroacetate] | 0.06 | 0.009 | > 10 | 2.66 |  |  | 
 | CN1C(=O)CN(CCC(=O)O)C(=O)c2cc(C#Cc3ccc(CN)cc3)ccc21 [Cmpd 43, 1-(methyl)-4-(2-carboxyethyl)-7-[4-(aminomethyl)phenyl]ethynyl-3,4-dihydro-1H-1,4-benzodiazepine-2,5-dione trifluroacetate] | 0.012 | 0.012 | > 10 | 1.7 | 3.34 |  | 
 | CN1C(=O)CN(CCC(=O)O)C(=O)c2cc(C#Cc3ccc(CNC(=N)N)cc3)ccc21 [Cmpd 44, 1-(methyl)-4-(2-carboxyethyl)-7-[4-(guanidinomethyl)phenyl]ethynyl-3,4-dihydro-1H-1,4-benzodiazepine-2,5-dione trifluroacetate] | 0.012 | 0.012 | > 10 | 8.8 | 14.3 |  | 
 | NCCCCC#Cc1ccc2c(c1)C(=O)N(CCC(=O)O)CC(=O)N2Cc1cccc([N+](=O)[O-])c1 [Cmpd 55, 1-(3-nitrobenzyl)-4-(2-carboxyethyl)-7-(6-amino-1-hexynyl)-3,4-dihydro-1H-1,4-benzodiazepine-2,5-dione trifuroacetate] | 0.008 | 0.008 | > 10 |  | 2.2 |  | 
 | N=C(N)NCCCCC#Cc1ccc2c(c1)C(=O)N(CCC(=O)O)CC(=O)N2Cc1cccc([N+](=O)[O-])c1 [Cmpd 56, 1-(3-nitrobenzyl)-4-(2-carboxyethyl)-7-(6-guanidino-1-hexynyl)-3,4-dihydro-1H-1,4-benzodiazepine-2,5-dione trifluroacetate] | 0.006 | 0.006 | > 10 |  | 15 |  | 
 | NCCCCC#Cc1ccc2c(c1)C(=O)N(CCC(=O)O)CC(=O)N2Cc1ccc(Cl)cc1 [Cmpd 60] | 0.014 | 0.014 | > 10 | 2.12 |  |  | 
 | N=C(N)NCCCCCc1ccc2c(c1)C(=O)N(CCC(=O)O)CC(=O)N2Cc1ccc(Cl)cc1 [Cmpd 63] | 0.011 | 0.011 | > 10 | 2.55 |  |  | 
 | NCCCCCCc1ccc2c(c1)C(=O)N(CCC(=O)O)CC(=O)N2Cc1ccc(Cl)cc1 [Cmpd 64, 1-(4-chlorophenyl)methyl-4-(2-carboxyethyl)-7-(6-aminohexyl)-3,4-dihydro-1H-1,4-benzodiazapine-2,5-dione] | 0.014 | 0.014 | > 10 | 1.2 | 4.76 |  | 
 | NCCCCCCCc1ccc2c(c1)C(=O)N(CCC(=O)O)CC(=O)N2Cc1ccc(Cl)cc1 [Cmpd 66] | 0.026 | 0.026 | > 10 | 3.88 |  |  | 
 | NCCCCCc1ccc2c(c1)C(=O)N(CCC(=O)O)CC(=O)N2C(c1ccccc1)c1ccccc1 [Cmpd 68, 1-(diphenylmethyl)-4-(2-carboxyethyl)-7-(5-aminopentyl)-3,4-dihydro-1H-1,4-benzodiazepine-2,5-dione trifluoroacetate] | 0.02 | 0.028 | > 10 | 1.66 | 3.4 |  | 
 | N=C(N)NCCCCCc1ccc2c(c1)C(=O)N(CCC(=O)O)CC(=O)N2C(c1ccccc1)c1ccccc1 [Cmpd 69, 1-(diphenylmethyl)-4-(2-carboxyethyl)-7-(5-guanidinopentyl)-3,4-dihydro-1H-1,4-benxodiazepine-2,5-dione trifluoroacetate] | 0.082 | 0.082 | > 10 | 2.09 | 3.9 |  | 
 | N=C(N)NCCCC#Cc1ccc2c(c1)C(=O)N(CCC(=O)O)CC(=O)N2C(c1ccccc1)c1ccccc1 [Cmpd 71] | 0.008 | 0.008 | > 10 | 0.34 | 0.95 |  | 
 | NCCCCCCc1ccc2c(c1)C(=O)N(CCC(=O)O)CC(=O)N2C(c1ccccc1)c1ccccc1 [Cmpd 72, 1-(diphenylmethyl)-4-(2-carboxyethyl)-7-(6-aminohexyl)-3,4-dihydro-1H-1,4-benzodiazepine-2,5-dione trifluoroacetate] | 0.022 | 0.022 | > 10 | 0.46 | 1.1 |  | 
 | N=C(N)NCCCC#Cc1ccc2c(c1)C(=O)N(CCC(=O)O)CC(=O)N2Cc1cccc(NC(=O)CNC(=N)N)c1 [Cmpd 107] |  | 0.018 | > 10 | 0.61 | 0.89 |  | 0.018
 | NCCCCCCc1ccc2c(c1)C(=O)N(CCC(=O)O)CC(=O)N2Cc1cccc(NC(=O)CN)c1 [Cmpd 108] |  | 0.012 | > 10 | 0.55 | 1.09 |  | 0.012
 | N=C(N)NCCCCCCc1ccc2c(c1)C(=O)N(CCC(=O)O)CC(=O)N2Cc1cccc(NC(=O)CNC(=N)N)c1 [Cmpd 109] |  | 0.017 | > 10 | 1.19 |  |  | 0.017
 | NCCCCCCc1ccc2c(c1)C(=O)N(CCC(=O)O)CC(=O)N2Cc1cccc(NC(=O)CCN)c1 [Cmpd 110, 1-[3-(3-aminopropionyl)aminophenyl]methyl-4-(2-carboxyethyl)-7-(6-aminohexyl)-3,4-dihydro-1H-1,4-benzodiazapine-2,5-dione bistrifluoroacetate] |  | 0.008 | > 10 | 0.28 | 0.83 |  | 0.008
 | N=C(N)NCCCCCCc1ccc2c(c1)C(=O)N(CCC(=O)O)CC(=O)N2Cc1cccc(NC(=O)CCNC(=N)N)c1 [Cmpd 111] |  | 0.01 | > 10 | 1.14 | 1.49 |  | 0.01

Compound | IC50 (GP IIb IIIa [3]) [µM] | IC50 (GP IIb IIIa [1]; [5]) [µM] | IC50 (GP IIb IIIa [1]; [6]) [µM] | IC50 [2] [µM] | IC50 [4, 7] [µM] | IC50 [4, 8] [µM] | IC50 ([4]; heparin, read-out: PA IC50 (μM) (heparin)) [µM] | IC50 (GP IIb IIIa [1]; [9]) [µM]
CN1C(=O)CN(CCC(=O)O)C(=O)c2cc(C#CCCCN)ccc21 [Cmpd 33, 1-methyl-4-(2-carboxyethyl)-7-(5-amino-1-pentynyl)-3,4-dihydro-1H-1,4-benzodiazepine-2,5-dione trifluroacetate] | 0.39 | 0.096 | 0.096 | > 10 | 85.5 |  |  | 
